Reference: patent US8686146B2, “Azaindenoisoquinoline topoisomerase I inhibitors” (Purdue Research Foundation, priority 2012, dated 2014)
Structures can show the parent of a compound that is named as a salt. Where two headings read alike, the source gives them in different places.

Key:
[1] = system: SN12C; assay: NCI screen antiproliferative activity, renal SN12C
Protocol: (§1) Cells of approximately 60 different human cancer cell lines were incubated for 48 h with five 10-fold dilutions of the tested compounds starting from 100 μM and then treated with sulforhodamine B dye. The ratios of recorded optical densities relative to that of the control were plotted as a function of the common logarithm of the tested compound concentrations. […] The GI50 and the mean graph midpoint (MGM) values of the prepared indenoisoquinolines in selected cell lines are presented in Table I.
(§2) The antiproliferative activity of each compound was determined in the National Cancer Institute (NCI) screen as described above. Cells of approximately 60 different human cancer cell lines were incubated for 48 h with five 10-fold dilutions of the test compounds starting from 100 μM, and then treated with sulforhodamine B dye. The ratios of recorded optical densities relative to those of the control were plotted as a function of the common logarithm of the tested compound concentrations. […] The GI50 and the mean graph midpoint (MGM) values of the prepared (aza)indeno-isoquinolines in selected cell lines are presented in Table 2.

[2] = system: DU-145; assay: NCI screen antiproliferative activity, prostate DU-145
Protocol: as §1, §2

[3] = system: OVCAR-3; assay: NCI screen antiproliferative activity, ovarian OVCAR-3
Protocol: as §1, §2

[4] = system: SF-539; assay: NCI screen antiproliferative activity, CNS SF-539
Protocol: as §1, §2

[5] = system: UACC-62; assay: NCI screen antiproliferative activity, melanoma UACC-62
Protocol: as §1, §2

[6] = target: T1, human recombinant Top1 (Homo sapiens, UniProt P11387); assay: Top1-mediated DNA cleavage assay; format: biochemical; conditions: semiquantitative, relative to compounds 1 and 2
T1 construct: made in house
T1 sequence (P11387 1-765): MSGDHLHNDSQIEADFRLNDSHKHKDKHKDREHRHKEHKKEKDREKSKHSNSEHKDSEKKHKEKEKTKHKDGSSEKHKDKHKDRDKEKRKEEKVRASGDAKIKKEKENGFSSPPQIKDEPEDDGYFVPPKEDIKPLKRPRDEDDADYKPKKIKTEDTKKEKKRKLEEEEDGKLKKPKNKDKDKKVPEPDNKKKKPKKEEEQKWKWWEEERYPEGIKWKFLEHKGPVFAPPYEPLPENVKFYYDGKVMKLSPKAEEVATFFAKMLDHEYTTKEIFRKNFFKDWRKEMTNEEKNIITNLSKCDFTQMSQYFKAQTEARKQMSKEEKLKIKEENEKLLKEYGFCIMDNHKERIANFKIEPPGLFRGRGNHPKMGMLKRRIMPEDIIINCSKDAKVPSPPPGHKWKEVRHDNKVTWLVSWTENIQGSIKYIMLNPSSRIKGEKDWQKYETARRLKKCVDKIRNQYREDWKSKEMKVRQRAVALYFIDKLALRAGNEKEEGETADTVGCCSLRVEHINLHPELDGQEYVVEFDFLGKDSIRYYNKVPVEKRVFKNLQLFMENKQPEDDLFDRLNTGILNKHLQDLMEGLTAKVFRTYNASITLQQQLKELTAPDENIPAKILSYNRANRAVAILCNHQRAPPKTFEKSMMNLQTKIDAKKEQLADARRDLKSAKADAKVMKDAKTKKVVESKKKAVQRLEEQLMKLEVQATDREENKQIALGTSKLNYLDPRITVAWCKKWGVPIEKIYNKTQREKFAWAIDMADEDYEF
Protocol: Unincorporated [^32P]dGTP was removed using mini Quick […] columns (Roche, Indianapolis, Ind.), and the eluate containing the […] DNA substrate was collected. […] Aliquots of each reaction mixture were subjected to 20% denaturing PAGE. […] The DNA fragments were separated on a denaturing gel. […] All of the target compounds were tested for induction of DNA damage in Top1-mediated DNA cleavage assays, as described above.

[7] = system: HOP-62; assay: NCI screen antiproliferative activity, lung HOP-62
Protocol: as §1, §2

[8] = system: MCF7; assay: NCI screen antiproliferative activity, breast MCF7
Protocol: as §1, §2

[9] = system: HCT-116; assay: NCI screen antiproliferative activity, colon HCT-116
Protocol: as §1, §2

[10] = system: approximately 60 different human cancer cell lines; assay: NCI screen, mean graph midpoint over all cell lines; format: cell-based; conditions: all human cancer cell lines successfully tested, 48 h
Protocol: as §1, §2

[11] = Homo sapiens, SN12C, 48 h, read-out: cytotoxicity (GI50) renal SN12C, 48 h, sulforhodamine B, single determination, Table 1
[12] = Homo sapiens, OVCAR-3, 48 h, read-out: cytotoxicity (GI50) ovarian OVCAR-3, 48 h, sulforhodamine B, single determination, Table 1
[13] = Homo sapiens, UACC-62, 48 h, read-out: cytotoxicity (GI50) melanoma UACC-62, 48 h, sulforhodamine B, single determination, Table 1
[14] = Homo sapiens, HOP-62, 48 h, read-out: cytotoxicity (GI50) lung HOP-62, 48 h, sulforhodamine B, single determination, Table 1
[15] = Homo sapiens, MCF7, 48 h, read-out: cytotoxicity (GI50) breast MCF7, 48 h, sulforhodamine B, single determination, Table 1
[16] = Homo sapiens, HCT-116, 48 h, read-out: cytotoxicity (GI50) colon HCT-116, 48 h, sulforhodamine B, single determination, Table 1

| SMILES | Top1 Cleavage ([6]; Table 1) | Top1 Cleavage ([6]; Table 2) | MGM (mean graph midpoint for growth inhibition) ([10]; Table 1) | MGM (mean graph midpoint for growth inhibition) ([10]; Table 2) | GI50 [1] | GI50 [2] | GI50 [3] | GI50 [4] | GI50 [7] | GI50 [8] | GI50 [9] | GI50 [5] | further results |
| --- | --- | --- | --- | --- | --- | --- | --- | --- | --- | --- | --- | --- | --- |
| COc1cc2c3c(n(CCCN(C)C)c(=O)c2cc1OC)-c1ncccc1C3=O [Compound 19, 7-Aza-5,6-dihydro-6-(3-dimethylaminopropyl)-2,3-dimethoxy-5,11-dioxo-11H-indeno[1,2-c]isoquinoline Hydrochloride] | +++ | +++ | 4.50 µM | 4.5 µM | – | – | – | – | – | – | – | – | GI50 [1, 11]: 3160 nM; GI50 ([1]; Homo sapiens, SN12C, 48 h, read-out: cytotoxicity (GI50) renal SN12C, 48 h, sulforhodamine B, single determination, Table 2): 3200 nM; GI50 ([2]; Homo sapiens, DU-145, 48 h, read-out: cytotoxicity (GI50) prostate DU-145, 48 h, sulforhodamine B, single determination, Table 2): 1700 nM; GI50 [3, 12]: 3550 nM; GI50 ([3]; Homo sapiens, OVCAR-3, 48 h, read-out: cytotoxicity (GI50) ovarian OVCAR-3, 48 h, sulforhodamine B, single determination, Table 2): 3600 nM; GI50 ([4]; Homo sapiens, 48 h, read-out: cytotoxicity (GI50) CNS SF-539, 48 h, sulforhodamine B, single determination, Table 2): 4100 nM; GI50 [5, 13]: 13200 nM; GI50 ([5]; Homo sapiens, UACC-62, 48 h, read-out: cytotoxicity (GI50) melanoma UACC-62, 48 h, sulforhodamine B, single determination, Table 2): 13000 nM; GI50 [7, 14]: 3390 nM; GI50 ([7]; Homo sapiens, HOP-62, 48 h, read-out: cytotoxicity (GI50) lung HOP-62, 48 h, sulforhodamine B, single determination, Table 2): 3400 nM; GI50 [8, 15]: 440 nM; GI50 [9, 16]: 1580 nM; GI50 ([9]; Homo sapiens, HCT-116, 48 h, read-out: cytotoxicity (GI50) colon HCT-116, 48 h, sulforhodamine B, single determination, Table 2): 1600 nM |
| COc1cc2c3c(n(CCCN4CCOCC4)c(=O)c2cc1OC)-c1ncccc1C3=O [Compound 22, 7-Aza-5,6-d hydro-6-(3-morpholinopropyl)-2,3-dimethoxy-5,11-dioxo-11H-indeno[1,2-c]isoquinolineHydrochloride] | ++ | ++ | 0.30 µM | 0.30 µM | 520 nM | 310 nM | 370 nM | 290 nM | 300 nM | 52 nM | 220 nM | – | – |
| O=C1c2cccnc2-c2c1c1ccccc1c(=O)n2CCCn1ccnc1 [Compound 28, 7-Aza-5,6-dihydro-6-(3-(1H-imidazol-1-yl)propyl)-5,11-dioxo-11H-indeno[1,2-c]isoquinoline] | ++ | – | 7.24 µM | – | 3720 nM | 2880 nM | 8710 nM | 5130 nM | 7240 nM | 3390 nM | 1200 nM | 35500 nM | – |
| Cl.O=C1c2cccnc2-c2c1c1ccccc1c(=O)n2CCCNCCO [Compound 30, 7-Aza-5,6-dihydro-6-(3-(2-hydroxyethylamino)propyl)-5,11-dioxo-11H-indeno[1,2-c]isoquinoline Hydrochloride] | + (+ weak activity;) | – | 1.29 µM | – | 760 nM | 410 nM | 1550 nM | 870 nM | 1410 nM | 480 nM | 300 nM | 3090 nM | – |
| COc1cc2c3c(n(CCCN(C)C)c(=O)c2cc1OC)-c1ccccc1C3=O [Compound 34, reference compound] | – | – | 6.17 µM | – | – | – | – | – | – | – | – | – | GI50 [1, 11]: 11000 nM; GI50 ([2]; Homo sapiens, DU-145, 48 h, read-out: cytotoxicity (GI50) prostate DU-145, 48 h, sulforhodamine B, single determination, Table 1): 4470 nM; GI50 [3, 12]: 5890 nM; GI50 ([4]; Homo sapiens, 48 h, read-out: cytotoxicity (GI50) CNS SF-539, 48 h, sulforhodamine B, single determination, Table 1): 6170 nM; GI50 [5, 13]: 6610 nM; GI50 [7, 14]: 11500 nM; GI50 [8, 15]: 6170 nM; GI50 [9, 16]: 2450 nM |
| COc1cnc2c(c1)C(=O)c1c-2n(CCCN2CCOCC2)c(=O)c2cc(OC)c(OC)cc12.Cl [Compound 56, 7-Aza-5,6-dihydro-6-[3-(4-morpholino)propyl]-2,3,9-trimethoxy-5,11-dioxo-11H-indeno[1,2-c]isoquinoline Hydrochloride] | – | ++ | – | 0.48 µM | 340 nM | 340 nM | 310 nM | 270 nM | 240 nM | 100 nM | 330 nM | 220 nM | – |
| COc1cnc2c(c1)C(=O)c1c-2n(CCCN2CCOCC2)c(=O)c2ccccc12 [Compound 64, 7-Aza-5,6-dihydro-6-(3-(4-morpholino)propyl)-9-methoxy-5,11-dioxo-11H-indeno[1,2-c]isoquinoline] | – | ++ | – | 3.0 µM | 2600 nM | 3600 nM | 6300 nM | 3500 nM | 4100 nM | 600 nM | 2500 nM | 1700 nM | – |

The next lines start with results.

| Top1 Cleavage ([6]; Table 1) | Top1 Cleavage ([6]; Table 2) | SMILES | MGM (mean graph midpoint for growth inhibition) ([10]; Table 1) | MGM (mean graph midpoint for growth inhibition) ([10]; Table 2) | GI50 [1] | GI50 [2] | GI50 [3] | GI50 [4] | GI50 [7] | GI50 [8] | GI50 [9] | GI50 [5] | further results |
| --- | --- | --- | --- | --- | --- | --- | --- | --- | --- | --- | --- | --- | --- |
| – | +++ | COc1cnc2c(c1)C(=O)c1c-2n(CCCN(C)C)c(=O)c2cc(OC)c(OC)cc12.Cl [Compound 55, 7-Aza-5,6-dihydro-6-(3-dimethylaminopropyl)-2,3,9-trimethoxy-5,11-dioxo-11H-indeno[1,2-c]isoquinoline Hydrochloride] | – | 1.8 µM | 3600 nM | 880 nM | 2900 nM | 1100 nM | 920 nM | 130 nM | 1500 nM | 3900 nM | – |
| – | +++ | COc1cnc2c(c1)C(=O)c1c-2n(CCCN(C)C)c(=O)c2ccccc12 [Compound 63, 7-Aza-5,6-dihydro-6-(3-dimethylaminopropyl)-9-methoxy-5,11-dioxo-11H-indeno[1,2-c]isoquinoline] | – | 0.40 µM | 260 nM | 300 nM | 940 nM | 570 nM | 300 nM | 210 nM | 340 nM | 540 nM | – |
| – | +++ | COc1cnc2c(c1)C(=O)c1c-2n(CCCN(C)C)c(=O)c2cc([N+](=O)[O-])ccc12 [Compound 65, 7-Aza-5,6-dihydro-6-(3-dimethylaminopropyl)-9-methoxy-3-nitro-5,11-dioxo-11H-indeno[1,2-c]isoquinoline] | – | 0.11 µM | 57 nM | 51 nM | 140 nM | 78 nM | 54 nM | 24 nM | 74 nM | 52 nM | – |
| – | ++++ (++++ similar activity as 1 μM 1.) | COc1cnc2c(c1)C(=O)c1c-2n(CCCN2CCOCC2)c(=O)c2cc([N+](=O)[O-])ccc12 [Compound 66, 7-Aza-5,6-dihydro-6-(3-(4-morpholino)propyl)-9-methoxy-3-nitro-5,11-dioxo-11H-indeno[1,2-c]isoquinoline] | – | 0.085 µM | 43 nM | 40 nM | 110 nM | 35 nM | 51 nM | 20 nM | 50 nM | 40 nM | – |
